Data: PubChem BioAssay AID1259408 (Genetic Toxicology Data Bank (GENE-TOX), 2018)
Active and inactive are the calls of the source. No rule for the calls is given here.

Tested on: GENE-TOX genotoxicity assays, various organisms and cells
Test: GENE-TOX mutagenicity studies
Details: for call: Assay Type: In vivo carcinogenicity studies
[1] = Species/Cell Type: Chinese hamster lung (V79) cells, Assay Type: Forward gene mutation at the HPRT or ouabain locus, Assay Code: V79+, Evaluation Type: Evaluation A (Pre-1980)
[2] = Species/Cell Type: Nonhuman, Assay Code: CCG+, Evaluation Type: Evaluation A (Pre-1980)
[3] = Species/Cell Type: Nonhuman, Assay Type: Sister-chromatid exchange (SCE) in vitro, Assay Code: SC2+, Evaluation Type: Evaluation B (Post-1980)
[4] = Species/Cell Type: Salmonella typhimurium (one or more of the five standard strains: TA98, TA100, TA1535, TA1537, and TA1538), Assay Type: Histidine reverse gene mutation, Ames assay, Assay Code: SAL+, Evaluation Type: Evaluation A (Pre-1980)
[5] = Species/Cell Type: Bacillus subtilis (H17 vs M45), Assay Type: Rec-assay, spot test, DNA effects (bacterial DNA repair), Assay Code: REW+, Evaluation Type: Evaluation A (Pre-1980)
[6] = Species/Cell Type: Escherichia coli polA (W3119 vs P3478), Assay Type: Rec-assay, DNA effects (bacterial DNA repair), Assay Code: RE1T, Evaluation Type: Evaluation A (Pre-1980)
[7] = Species/Cell Type: Nonhuman, Assay Type: Sister-chromatid exchange (SCE) in vitro, Assay Code: SC2T, Evaluation Type: Evaluation B (Post-1980)
[8] = Species/Cell Type: Human lymphocytes, Assay Type: Sister-chromatid exchange (SCE) in vitro, Assay Code: SCLT, Evaluation Type: Evaluation B (Post-1980)
[9] = Species/Cell Type: Human, Assay Type: Sister-chromatid exchange (SCE) in vitro, Assay Code: SC1T, Evaluation Type: Evaluation B (Post-1980)
[10] = Species/Cell Type: Nonhuman, Assay Code: CCGT, Evaluation Type: Evaluation A (Pre-1980)
[11] = Species/Cell Type: Salmonella typhimurium (one or more of the five standard strains: TA98, TA100, TA1535, TA1537, and TA1538), Assay Type: Histidine reverse gene mutation, Ames assay, Assay Code: SAL+*, Activation: With metabolic activation, Evaluation Type: Evaluation A (Pre-1980)
[12] = Species/Cell Type: Drosophila melanogaster, Assay Type: Sex-linked recessive lethal gene mutation, Assay Code: SRL+, Evaluation Type: Evaluation A (Pre-1980)
[13] = Species/Cell Type: Salmonella typhimurium (one or more of the five standard strains: TA98, TA100, TA1535, TA1537, and TA1538), Assay Type: Histidine reverse gene mutation, Ames assay, Assay Code: SAL-, Evaluation Type: Evaluation A (Pre-1980)

COc1cccc2c1C(=O)c1c(O)c3c(c(O)c1C2=O)C[C@@](O)(C(C)=O)C[C@@H]3O[C@H]1C[C@H](N)[C@H](O)[C@H](C)O1
mutagenic call [1]: active; positive | mutagenic call (Species/Cell Type: Chinese hamster ovary (CHO) cells, Assay Type: Forward gene mutation at the HPRT locus, Assay Code: CHO+, Evaluation Type: Evaluation B (Post-1980)): active; positive | mutagenic call (Species/Cell Type: Glycine max (soybean), Assay Type: Gene mutation, Assay Code: GLMT, Evaluation Type: Evaluation A (Pre-1980)): no conclusion | mutagenic call (Species/Cell Type: Human cell culture, Assay Type: Chromosome aberrations in vitro, Assay Code: CYZ+D, Dose Response: With dose response, Evaluation Type: Evaluation A (Pre-1980)): active; positive | mutagenic call (Species/Cell Type: Human lymphocytes or leukocytes, Assay Type: Chromosome aberrations in vitro, Assay Code: CY7+, Evaluation Type: Evaluation A (Pre-1980)): active; positive | mutagenic call (Species/Cell Type: Human lymphocytes, Assay Type: Sister-chromatid exchange (SCE) in vitro, Assay Code: SCL+D, Dose Response: With dose response, Evaluation Type: Evaluation B (Post-1980)): active; positive | mutagenic call (Species/Cell Type: Human, Assay Type: Sister-chromatid exchange (SCE) in vitro, Assay Code: SC1+D, Dose Response: With dose response, Evaluation Type: Evaluation B (Post-1980)): active; positive | mutagenic call (Species/Cell Type: Nonhuman bone marrow, Assay Type: Chromosome aberrations, in vivo, Assay Code: CY#+, Evaluation Type: Evaluation A (Pre-1980)): active; positive | mutagenic call (Species/Cell Type: Nonhuman lymphocytes or leukocytes, Assay Type: Chromosome aberrations in vivo, Assay Code: CY%+, Evaluation Type: Evaluation A (Pre-1980)): active; positive | call [2]: active; positive | mutagenic call [3]: active; positive | mutagenic call (Species/Cell Type: Nonhuman, Assay Type: Sister-chromatid exchange (SCE) in vivo, Assay Code: SC3+D, Dose Response: With dose response, Evaluation Type: Evaluation B (Post-1980)): active; positive | mutagenic call [4]: active; positive | mutagenic call (Species/Cell Type: Vicia faba, Assay Type: Chromosome aberrations, Assay Code: VIC+D, Dose Response: With dose response, Evaluation Type: Evaluation A (Pre-1980)): active; positive

O=CNNc1nc(-c2ccc([N+](=O)[O-])o2)cs1
mutagenic call [5]: active; positive | mutagenic call (Species/Cell Type: Escherichia coli WP2, Assay Type: Tryptophan reverse gene mutation, Assay Code: WP2+, Evaluation Type: Evaluation A (Pre-1980)): active; positive | mutagenic call (Species/Cell Type: Escherichia coli WP2 UVRA, Assay Type: Tryptophan reverse gene mutation, Assay Code: WPU+, Evaluation Type: Evaluation A (Pre-1980)): active; positive | mutagenic call (Species/Cell Type: Mouse, Sex: Male, Assay Type: Sperm morphology, Assay Code: SPI+, Evaluation Type: Evaluation A (Pre-1980)): active; positive | call [2]: active; positive | mutagenic call [4]: active; positive

C[N+](C)(C)CCO
mutagenic call [6]: no conclusion | mutagenic call [3]: active; positive

O=[N+]([O-])c1ccc2ncccc2c1
mutagenic call [4]: active; positive

C/C=C/C=C/C#C/C=C/C=C/CCCCCOC(C)=O
mutagenic call [7]: no conclusion

Cc1cccc(O)c1C
mutagenic call [8]: no conclusion | mutagenic call [9]: no conclusion

CN(C)C(=S)SC(=S)N(C)C
mutagenic call (Species/Cell Type: Mammalian polychromatic erythrocytes, Assay Type: Micronucleus test, chromosome aberrations, Assay Code: MNT+U, Dose Response: Unconfirmed positive response, Evaluation Type: Evaluation B (Post-1980)): active; positive

Oc1ccc2ccc3cc4ccccc4c4ccc1c2c34
mutagenic call (Species/Cell Type: Chinese hamster lung (V79) cells, Assay Type: Forward gene mutation at the HPRT or ouabain locus, Assay Code: V79+/-*, Activation: With metabolic activation, Evaluation Type: Evaluation A (Pre-1980)): inactive; positive without activation, negative with activation | call [10]: no conclusion | mutagenic call [4]: active; positive

C#C[C@]1(OC(C)=O)CC[C@H]2[C@@H]3CCC4=CC(=O)CC[C@@H]4[C@H]3CC[C@@]21C (tested in a mixture with another compound)
mutagenic call (Species/Cell Type: Rodents, Sex: Male, Assay Type: Dominant lethal test, Assay Code: DLT-, Evaluation Type: Evaluation A (Pre-1980)): inactive; negative

CC(=O)ON(C(C)=O)c1ccc(-c2ccccc2)cc1
mutagenic call (Species/Cell Type: Human diploid fibroblasts, Assay Type: Unscheduled DNA synthesis (UDS) in vitro, DNA effects, Assay Code: UDH+, Evaluation Type: Evaluation A (Pre-1980)): active; positive | mutagenic call [3]: active; positive

CC1CCc2c1ccc1c2ccc2ccccc21 (centres undefined)
mutagenic call [11]: active; positive

CC(=O)O[C@]1(C(C)=O)CC[C@H]2[C@@H]3C=C(Cl)C4=CC(=O)[C@@H]5C[C@@H]5[C@]4(C)[C@H]3CC[C@@]21C
mutagenic call (Species/Cell Type: Human, Sex: Male, Assay Type: Sperm morphology, Assay Code: SPH+, Evaluation Type: Evaluation A (Pre-1980)): active; positive

[Cl][Pt]([Cl])([Cl])[Cl]
mutagenic call [5]: active; positive | mutagenic call [12]: active; positive

C=C/C=C/C=C/C#CC#C/C=C/C
mutagenic call [7]: no conclusion

Cc1cc(N=Nc2ccc(C)c(N=Nc3cc(C)c(N)cc3N)c2)c(N)cc1N
mutagenic call (Species/Cell Type: Bacillus subtilis (H17 vs M45), Assay Type: Rec-assay, spot test, DNA effects (bacterial DNA repair), Assay Code: REW-, Evaluation Type: Evaluation A (Pre-1980)): inactive; negative

CCCCNP(=O)(N1CC1)N1CC1
mutagenic call [12]: active; positive | mutagenic call (Species/Cell Type: Nonhuman, Assay Type: Chromosome aberrations in vitro, Assay Code: CY&+, Evaluation Type: Evaluation A (Pre-1980)): active; positive | mutagenic call (Species/Cell Type: Schizosaccharomyces pombe, Assay Type: Reverse gene mutation, Assay Code: YEZ+, Evaluation Type: Evaluation A (Pre-1980)): active; positive

O=[N+]([O-])c1ccc(Oc2ccc(C(F)(F)F)cc2[N+](=O)[O-])cc1
mutagenic call (Species/Cell Type: Saccharomyces cerevisiae, Assay Type: Mitotic recombination or gene conversion, Assay Code: YEC-, Evaluation Type: Evaluation A (Pre-1980)): inactive; negative

Cc1cn([C@H]2C[C@H](O)[C@@H](CO)O2)c(=O)[nH]c1=O
mutagenic call [1]: active; positive | mutagenic call (Species/Cell Type: Glycine max (soybean), Assay Type: Gene mutation, Assay Code: GLM-, Evaluation Type: Evaluation A (Pre-1980)): inactive; negative | mutagenic call [8]: no conclusion | mutagenic call [9]: no conclusion | mutagenic call (Species/Cell Type: Mouse (C3H/10T1/2) cells, Assay Type: Cell transformation, Assay Code: CTH-, Evaluation Type: Evaluation A (Pre-1980)): inactive; negative | call [10]: no conclusion | mutagenic call (Species/Cell Type: Nonhuman, Assay Type: Sister-chromatid exchange (SCE) in vitro, Assay Code: SC2+D, Dose Response: With dose response, Evaluation Type: Evaluation B (Post-1980)): active; positive

CC(N)=S
mutagenic call [12]: active; positive | mutagenic call (Species/Cell Type: Escherichia coli polA (W3110 vs P3478), Assay Type: Rec-assay, DNA effects (bacterial DNA repair), Assay Code: RE2-, Evaluation Type: Evaluation A (Pre-1980)): inactive; negative | mutagenic call [6]: no conclusion | mutagenic call (Species/Cell Type: Fischer rat embryo (RLV/1706) cells, Assay Type: Cell transformation, viral enhanced, Assay Code: CTR+, Evaluation Type: Evaluation A (Pre-1980)): active; positive | mutagenic call (Species/Cell Type: Mammalian polychromatic erythrocytes, Assay Type: Micronucleus test, chromosome aberrations, Assay Code: MNT+, Evaluation Type: Evaluation B (Post-1980)): active; positive | mutagenic call (Species/Cell Type: Mouse embryo (AKR/ME) cells, Assay Type: Cell transformation, Assay Code: CTK+, Evaluation Type: Evaluation A (Pre-1980)): active; positive | mutagenic call (Species/Cell Type: Mouse, Sex: Male, Assay Type: Sperm morphology, Assay Code: SPI-, Evaluation Type: Evaluation A (Pre-1980)): inactive; negative | call [2]: active; positive | mutagenic call (Species/Cell Type: Saccharomyces cerevisiae, Assay Type: Mitotic recombination or gene conversion, Assay Code: YEH+/-*, Activation: With metabolic activation, Evaluation Type: Evaluation A (Pre-1980)): inactive; positive without activation, negative with activation | mutagenic call [13]: inactive; negative | mutagenic call (Species/Cell Type: Salmonella typhimurium, Assay Type: Forward and reverse gene mutation, host-mediated assay, Assay Code: HMA+, Evaluation Type: Evaluation A (Pre-1980)): active; positive | mutagenic call (Species/Cell Type: Syrian hamster embryo (SHE) cells, Assay Type: Cell transformation, clonal assay, Assay Code: CTC+, Evaluation Type: Evaluation A (Pre-1980)): active; positive

O=C(O)O
mutagenic call [5]: active; positive | mutagenic call [6]: no conclusion

CCCOC(=O)c1ccc(O)cc1
mutagenic call [13]: inactive; negative

O=P(O)(O)O
mutagenic call (Species/Cell Type: Syrian hamster embryo (SA7/SHE) cells, Assay Type: Cell transformation, viral enhanced, Assay Code: CT7-, Evaluation Type: Evaluation A (Pre-1980)): inactive; negative

Cc1c2c(cc3c1ccc1ccccc13)C=CC(O)C2O (centres undefined)
mutagenic call [11]: active; positive

O=C(/C=C/c1ccc([N+](=O)[O-])o1)NC1CCCCC1
mutagenic call (Species/Cell Type: Neurospora crassa, Assay Type: Forward gene mutation, Assay Code: NEF-, Evaluation Type: Evaluation A (Pre-1980)): inactive; negative

CCCCN(CCC(C)O)N=O (centres undefined)
mutagenic call [4]: active; positive
